This test deals with Nippostrongylus brasiliensis. As to the kind of experiment: In-vitro experiments with adult Nippostrongylus brasiliensis: acetylcholine esterase activity in the incubation medium. The format is cell-based. Details: key: 0=no activity (<50% enzyme inhibition); 1=weak activity; 2=good activity; 3=full activity. Here is the method:
Test Method for In-Vitro Experiments with Nippostrongylus brasiliensis
Adult Nippostrongylus brasiliensis were isolated from the small intestine of female Wistar rats and transferred into 0.9% NaCl containing 20 μg/ml sisomycin and 2 μg/ml Canesten. The groups of worms (both sexes) were incubated in 1.0 ml of medium, which was also used for determining the acetylcholine esterase activity. The incubation and the enzyme assay were described in the paper by Rapson et al. (1987) Z. Parasitenkunde 73, 190-191. […] The controls only contained DMSO. The acetylcholine esterase activity in the incubation medium was determined in accordance with the above publication.
The efficacy was categorized by means of a scale 0-3, where 0=no activity (<50% enzyme inhibition); 1=weak activity; 2=good activity; 3=full activity

On to `COCC(=O)Nc1ccc(/N=C(\C)N(C)C)cc1` [Amidantel, amidantel], for which the “efficacy (scale 0-3, acetylcholine esterase inhibition)” value runs as follows: (Amidantel 10 ppm alone (PF1022A 0 ppm)) 1; (Amidantel 50 ppm alone (PF1022A 0 ppm)) 1; (Amidantel 100 ppm alone (PF1022A 0 ppm)) 1.

Regarding `C/C(=N\c1ccc(N)cc1)N(C)C` [Bay d 9216], the “efficacy (scale 0-3, acetylcholine esterase inhibition)” value is 1 (Bay d 9216 1 ppm alone (PF1022A 0 ppm)), 1 (Bay d 9216 5 ppm alone (PF1022A 0 ppm)) and 1 (Bay d 9216 10 ppm alone (PF1022A 0 ppm)).

On to `CC(C)CC1C(=O)OC(Cc2ccccc2)C(=O)N(C)C(CC(C)C)C(=O)OC(C)C(=O)N(C)C(CC(C)C)C(=O)OC(Cc2ccccc2)C(=O)N(C)C(CC(C)C)C(=O)OC(C)C(=O)N1C` (stereo not drawn) [PF1022A], for which the “efficacy (scale 0-3, acetylcholine esterase inhibition)” value was 1 (PF1022A 0.01 ppm alone (Amidantel 0 ppm)); 1 (PF1022A 0.01 ppm alone (Bay d 9216 0 ppm)); 1 (PF1022A 0.05 ppm alone (Amidantel 0 ppm)); 1 (PF1022A 0.05 ppm alone (Bay d 9216 0 ppm)); 2 (PF1022A 0.1 ppm alone (Amidantel 0 ppm)); 2 (PF1022A 0.1 ppm alone (Bay d 9216 0 ppm)).

(Values after patent US20110201550A1, “COMBINATION OF AMIDINE DERIVATIVES WITH CYCLIC DEPSIPEPTIDES” (Bayer Animal Health GMBH, priority 2008, published 2011).)
